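Where inhibition never reached the appropriate level, the endpoint shown equals the highest concentration tested. Otherwise, values were interpolated linearly from a five-concentration, 48-hour dose response in 96-well plates. The concentration for 50% growth inhibition is given as GI50.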 Activity calls are given as the source filed them. Rule as the data show it: active = GI50 up to about 1.1 µM and inactive = higher.
What was measured:
Experiment in all cases: DTP human tumour cell line panel, 48 h
A498 = system: A498
A549 = system: A549
HOP-92 = system: HOP-92
K562 = system: K562
MCF7 = system: MCF7
MDA-MB-231 = system: MDA-MB-231
NCI-H460 = system: NCI-H460
NCI/ADR-RES = system: NCI/ADR-RES
OVCAR-4 = system: OVCAR-4
RPMI-8226 = system: RPMI-8226
SF-268 = system: SF-268
SF-539 = system: SF-539
SK-MEL-2 = system: SK-MEL-2
SK-MEL-5 = system: SK-MEL-5
SK-OV-3 = system: SK-OV-3
SNB-75 = system: SNB-75
SR = system: SR
T47D = system: T47D
TK-10 = system: TK-10
UACC-257 = system: UACC-257

Structure (SMILES)	GI50 (A498)	GI50 (A549)	GI50 (HOP-92)	GI50 (K562)	GI50 (MCF7)	GI50 (MDA-MB-231)	GI50 (NCI-H460)	GI50 (NCI/ADR-RES)	GI50 (OVCAR-4)	GI50 (RPMI-8226)	GI50 (SF-268)	GI50 (SF-539)	GI50 (SK-MEL-2)	GI50 (SK-MEL-5)	GI50 (SK-OV-3)	GI50 (SNB-75)	GI50 (SR)	GI50 (T47D)	GI50 (TK-10)	GI50 (UACC-257)
Cc1c2c(c(C)c3c4c(oc13)CCCC4)C=NCC2	17 µM (inactive)	17 µM (inactive)	11.5 µM (inactive)	11.1 µM (inactive)	16.1 µM (inactive)	16.4 µM (inactive)	15.8 µM (inactive)	15.4 µM (inactive)	22.3 µM (inactive)	0.818 µM (active)	20.2 µM (inactive)	15.2 µM (inactive)	17.1 µM (inactive)	14.9 µM (inactive)	20.7 µM (inactive)	15.8 µM (inactive)	6.58 µM (inactive)	35.6 µM (inactive)	12.1 µM (inactive)	14.7 µM (inactive)
Cn1c(-c2ccccc2)cc(-c2cccs2)c1-c1ccsc1	> 100 µM (inactive)	> 100 µM (inactive)	> 100 µM (inactive)	> 100 µM (inactive)	47.4 µM (inactive)	> 100 µM (inactive)	> 100 µM (inactive)	> 100 µM (inactive)	> 100 µM (inactive)	64.1 µM (inactive)	> 100 µM (inactive)	> 100 µM (inactive)	> 100 µM (inactive)	> 100 µM (inactive)	> 100 µM (inactive)	> 100 µM (inactive)	> 100 µM (inactive)	> 100 µM (inactive)	> 100 µM (inactive)	> 100 µM (inactive)
C[B@@-]1(c2ccc(C(F)(F)F)cc2)N[C@@H](Cc2ccccc2)C(=O)O1	> 100 µM (inactive)	> 100 µM (inactive)	11.9 µM (inactive)	> 100 µM (inactive)	> 100 µM (inactive)	> 100 µM (inactive)	> 100 µM (inactive)	> 100 µM (inactive)	> 100 µM (inactive)	> 100 µM (inactive)	> 100 µM (inactive)	–	–	> 100 µM (inactive)	> 100 µM (inactive)	31.6 µM (inactive)	> 100 µM (inactive)	> 100 µM (inactive)	> 100 µM (inactive)	> 100 µM (inactive)
O=C1c2ccccc2C(=O)c2nn(N=P(CP(=Nn3nc4c(n3)C(=O)c3ccccc3C4=O)(c3ccccc3)c3ccccc3)(c3ccccc3)c3ccccc3)nc21	> 100 µM (inactive)	> 100 µM (inactive)	96.8 µM (inactive)	> 100 µM (inactive)	> 100 µM (inactive)	> 100 µM (inactive)	> 100 µM (inactive)	> 100 µM (inactive)	> 100 µM (inactive)	> 100 µM (inactive)	> 100 µM (inactive)	> 100 µM (inactive)	> 100 µM (inactive)	> 100 µM (inactive)	> 100 µM (inactive)	–	> 100 µM (inactive)	> 100 µM (inactive)	> 100 µM (inactive)	> 100 µM (inactive)
CCOC(C)O[C@H]1C(=O)OCC1(C)C (some centres undefined)	> 100 µM (inactive)	> 100 µM (inactive)	> 100 µM (inactive)	80.7 µM (inactive)	> 100 µM (inactive)	> 100 µM (inactive)	> 100 µM (inactive)	> 100 µM (inactive)	> 100 µM (inactive)	> 100 µM (inactive)	> 100 µM (inactive)	> 100 µM (inactive)	> 100 µM (inactive)	> 100 µM (inactive)	> 100 µM (inactive)	> 100 µM (inactive)	> 100 µM (inactive)	> 100 µM (inactive)	> 100 µM (inactive)	> 100 µM (inactive)
O=C1/C(=C/c2ccc(Cl)cc2)CCC/C1=C\c1ccc(O)c(CN2CCCCC2)c1	14.6 µM (inactive)	27.2 µM (inactive)	18.5 µM (inactive)	9.29 µM (inactive)	47.1 µM (inactive)	26.9 µM (inactive)	19.5 µM (inactive)	12.9 µM (inactive)	20 µM (inactive)	–	–	21.8 µM (inactive)	42.1 µM (inactive)	15.1 µM (inactive)	24 µM (inactive)	19.1 µM (inactive)	3.78 µM (inactive)	19.5 µM (inactive)	29.2 µM (inactive)	17.8 µM (inactive)
Cc1ccc(C(=O)N/N=C(\N=N\c2cccc(C)c2)c2ccc(N(CCC#N)CCC#N)cc2C)cc1	73.3 µM (inactive)	> 100 µM (inactive)	34 µM (inactive)	> 100 µM (inactive)	67.5 µM (inactive)	> 100 µM (inactive)	52.7 µM (inactive)	> 100 µM (inactive)	> 100 µM (inactive)	49.9 µM (inactive)	59.6 µM (inactive)	64.7 µM (inactive)	49.3 µM (inactive)	32.2 µM (inactive)	> 100 µM (inactive)	47.5 µM (inactive)	55.1 µM (inactive)	44 µM (inactive)	> 100 µM (inactive)	58.9 µM (inactive)
CCN(CC)CCNc1ccc2nnn3c4ccc(OCCN(CC)CC)cc4c(=O)c1c23	> 100 µM (inactive)	44.9 µM (inactive)	51.9 µM (inactive)	38.6 µM (inactive)	33.6 µM (inactive)	23.1 µM (inactive)	33.7 µM (inactive)	57.7 µM (inactive)	16.3 µM (inactive)	26.8 µM (inactive)	54.1 µM (inactive)	96.8 µM (inactive)	> 100 µM (inactive)	–	> 100 µM (inactive)	–	19.4 µM (inactive)	> 100 µM (inactive)	28.5 µM (inactive)	> 100 µM (inactive)
O=C1c2ccccc2-c2nc(/C=C/c3ccccc3)cc3c2c1nc1ccccc13	60.1 µM (inactive)	30.6 µM (inactive)	26.5 µM (inactive)	3.47 µM (inactive)	19.1 µM (inactive)	24.4 µM (inactive)	–	33.8 µM (inactive)	68.7 µM (inactive)	15.1 µM (inactive)	65 µM (inactive)	27.4 µM (inactive)	21.6 µM (inactive)	2.32 µM (inactive)	34.1 µM (inactive)	17.8 µM (inactive)	1.8 µM (inactive)	48.8 µM (inactive)	81.8 µM (inactive)	89.5 µM (inactive)
CSc1c(C#N)c2n(c3ccccc13)c1ccccc1[n+]2C	21 µM (inactive)	24.1 µM (inactive)	33.5 µM (inactive)	–	35.6 µM (inactive)	20.7 µM (inactive)	26.4 µM (inactive)	25.1 µM (inactive)	59.3 µM (inactive)	17.3 µM (inactive)	28.5 µM (inactive)	22.4 µM (inactive)	20.3 µM (inactive)	11.9 µM (inactive)	–	37.2 µM (inactive)	> 100 µM (inactive)	30.1 µM (inactive)	21.1 µM (inactive)	19.7 µM (inactive)
O=C(/N=N/c1cc(Cl)ccc1Cl)NNc1cc(Cl)ccc1Cl	26.9 µM (inactive)	–	15.2 µM (inactive)	14.6 µM (inactive)	18.4 µM (inactive)	15.7 µM (inactive)	17.3 µM (inactive)	22 µM (inactive)	–	11.9 µM (inactive)	–	–	20 µM (inactive)	12.7 µM (inactive)	30.3 µM (inactive)	28.4 µM (inactive)	21.2 µM (inactive)	10.5 µM (inactive)	–	–
O=S(=O)(O)c1ccc(Nc2ccnc3cc(Cl)ccc23)cc1	> 100 µM (inactive)	> 100 µM (inactive)	> 100 µM (inactive)	> 100 µM (inactive)	> 100 µM (inactive)	> 100 µM (inactive)	–	> 100 µM (inactive)	> 100 µM (inactive)	> 100 µM (inactive)	> 100 µM (inactive)	> 100 µM (inactive)	> 100 µM (inactive)	> 100 µM (inactive)	> 100 µM (inactive)	> 100 µM (inactive)	> 100 µM (inactive)	> 100 µM (inactive)	> 100 µM (inactive)	> 100 µM (inactive)
CSc1ccc(Nc2cc(=O)[nH]c(=O)[nH]2)cc1	> 100 µM (inactive)	> 100 µM (inactive)	> 100 µM (inactive)	> 100 µM (inactive)	> 100 µM (inactive)	> 100 µM (inactive)	> 100 µM (inactive)	> 100 µM (inactive)	> 100 µM (inactive)	> 100 µM (inactive)	> 100 µM (inactive)	> 100 µM (inactive)	> 100 µM (inactive)	> 100 µM (inactive)	> 100 µM (inactive)	–	> 100 µM (inactive)	> 100 µM (inactive)	–	> 100 µM (inactive)
NC(CCCCNc1ccn(C2OC(CO)C(O)C2O)c(=O)n1)C(=O)O (centres undefined)	> 100 µM (inactive)	50.5 µM (inactive)	53.7 µM (inactive)	> 100 µM (inactive)	> 100 µM (inactive)	> 100 µM (inactive)	> 100 µM (inactive)	> 100 µM (inactive)	> 100 µM (inactive)	> 100 µM (inactive)	> 100 µM (inactive)	> 100 µM (inactive)	77.8 µM (inactive)	> 100 µM (inactive)	–	> 100 µM (inactive)	> 100 µM (inactive)	> 100 µM (inactive)	> 100 µM (inactive)	> 100 µM (inactive)
CCOC(=O)NC(Nc1ccc(C(=O)O)cc1)(C(F)(F)F)C(F)(F)F	> 100 µM (inactive)	> 100 µM (inactive)	> 100 µM (inactive)	> 100 µM (inactive)	> 100 µM (inactive)	> 100 µM (inactive)	> 100 µM (inactive)	> 100 µM (inactive)	–	> 100 µM (inactive)	> 100 µM (inactive)	> 100 µM (inactive)	> 100 µM (inactive)	> 100 µM (inactive)	> 100 µM (inactive)	> 100 µM (inactive)	> 100 µM (inactive)	> 100 µM (inactive)	> 100 µM (inactive)	> 100 µM (inactive)

Reference: ChEMBL document CHEMBL1201862, “PubChem BioAssay data set” (2004)
